Reference: patent US8883963B2 (Cadila Healthcare Limited, priority 2007, dated 2014)
Non-standard residues stand in square brackets, D forms with d. Residues, ends and D or L forms follow the SMILES beside them. ξ: configuration not given here. *: point of attachment. ξNMeBip(2'-Et,4'-OMe) = CCc1cc(OC)ccc1-c1ccc(CC(NC)C(=O)O)cc1; Leu(5,5,5,5',5',5'-F6) = N[C@@H](CC(C(F)(F)F)C(F)(F)F)C(=O)O; X4 = CCc1cc(OC)ccc1-c1ccc(CC(CNC(CCCc2ccccc2F)C(N)=O)N*)cc1; ξBip(2'-Et-4'-OMe) = CCc1cc(OC)ccc1-c1ccc(CC(N)C(=O)O)cc1; ξNMeNva(5-(2-F-Ph)) = CNC(CCCc1ccccc1F)C(=O)O; ξNva(5-(3-Cl-Ph)) = NC(CCCc1cccc(Cl)c1)C(=O)O; ξbishPhe(2-F) = NC(CCCc1ccccc1F)C(=O)O; ξαMePhe(2-F) = CC(N)(Cc1ccccc1F)C(=O)O; NMeD = CN[C@@H](CC(=O)O)C(=O)O; aThr = C[C@H](O)[C@H](N)C(=O)O; Aib = CC(C)(N)C(=O)O

Tests used:
[1] = Stability in liver microsomes; assay type: in vitro ADME; conditions: 2 μM peptidomimetic, human liver microsomes, 37° C.; for half-life at 2 μM: pH 7.8, read-out: half-life (t1/2) when incubated with liver microsomes
Experimental: (§1) Reactions were terminated by the addition of TFA/H2O (15 mL, 10% (v/v)). […] The column was equilibrated with TFA/H20, at a flow rate of 1 mL/min.

[2] = Stability in human plasma; assay type: in vitro ADME; conditions: 2 μM peptidomimetic, pooled human plasma, 37° C.; for half-life at 2 μM: pH 7.8, read-out: half-life (t1/2) when incubated with human plasma
Experimental: as §1

[3] = Stability in simulated gastric fluid; assay type: in vitro ADME; conditions: 2 μM peptidomimetic, simulated gastric fluid pH 1.5, 37° C.; for half-life at 2 μM: read-out: half-life (t1/2) when incubated with simulated gastric fluid
Experimental: as §1

[4] = Stability in simulated intestinal fluid; assay type: in vitro ADME; conditions: 2 μM peptidomimetic, simulated intestinal fluid pH 7.5, 37° C.; for half-life at 2 μM: read-out: half-life (t1/2) when incubated with simulated intestinal fluid
Experimental: as §1

DPP IV = DPP IV (Homo sapiens, UniProt P27487); assay: Stability against DPP IV enzyme; assay type: in vitro ADME; conditions: 37° C.; for % degradation of peptidomimetics in 24 h when incubated with DPP-IV enzyme: 2 μM peptidomimetic; for half-life at 2 μM: DPP IV enzyme, pH 7.8, 2 μM peptidomimetic, read-out: half-life (t1/2) when incubated with DPP-IV enzyme
Experimental: as §1

human glucagon receptor = molecular target: T1, human glucagon receptor (Homo sapiens, UniProt P47871); assay: In vitro human glucagon antagonist activity (inhibition of cAMP production) in CHO/human glucagon R cells; assay type: cell-based; conditions: with saturated concentration of glucagon peptide
T1 construct: The full-length cDNA was cloned in pcDNA3.1 (Invitrogen); expressed in transfected cells
T1 sequence (P47871 26-477): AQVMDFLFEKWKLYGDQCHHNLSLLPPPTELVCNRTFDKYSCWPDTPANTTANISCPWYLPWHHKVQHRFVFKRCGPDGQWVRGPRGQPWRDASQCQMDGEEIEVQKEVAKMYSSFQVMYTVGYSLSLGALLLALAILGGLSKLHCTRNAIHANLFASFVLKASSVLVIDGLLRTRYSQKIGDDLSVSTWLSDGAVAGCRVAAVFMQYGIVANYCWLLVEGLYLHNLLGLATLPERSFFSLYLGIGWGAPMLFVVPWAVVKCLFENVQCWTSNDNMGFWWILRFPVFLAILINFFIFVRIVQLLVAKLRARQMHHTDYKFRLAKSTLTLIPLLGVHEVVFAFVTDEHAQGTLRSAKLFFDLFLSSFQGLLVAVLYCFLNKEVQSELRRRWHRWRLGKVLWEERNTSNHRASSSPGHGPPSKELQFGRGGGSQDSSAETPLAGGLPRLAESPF

Sequence of DPP IV (P27487 whole entry, species assumed): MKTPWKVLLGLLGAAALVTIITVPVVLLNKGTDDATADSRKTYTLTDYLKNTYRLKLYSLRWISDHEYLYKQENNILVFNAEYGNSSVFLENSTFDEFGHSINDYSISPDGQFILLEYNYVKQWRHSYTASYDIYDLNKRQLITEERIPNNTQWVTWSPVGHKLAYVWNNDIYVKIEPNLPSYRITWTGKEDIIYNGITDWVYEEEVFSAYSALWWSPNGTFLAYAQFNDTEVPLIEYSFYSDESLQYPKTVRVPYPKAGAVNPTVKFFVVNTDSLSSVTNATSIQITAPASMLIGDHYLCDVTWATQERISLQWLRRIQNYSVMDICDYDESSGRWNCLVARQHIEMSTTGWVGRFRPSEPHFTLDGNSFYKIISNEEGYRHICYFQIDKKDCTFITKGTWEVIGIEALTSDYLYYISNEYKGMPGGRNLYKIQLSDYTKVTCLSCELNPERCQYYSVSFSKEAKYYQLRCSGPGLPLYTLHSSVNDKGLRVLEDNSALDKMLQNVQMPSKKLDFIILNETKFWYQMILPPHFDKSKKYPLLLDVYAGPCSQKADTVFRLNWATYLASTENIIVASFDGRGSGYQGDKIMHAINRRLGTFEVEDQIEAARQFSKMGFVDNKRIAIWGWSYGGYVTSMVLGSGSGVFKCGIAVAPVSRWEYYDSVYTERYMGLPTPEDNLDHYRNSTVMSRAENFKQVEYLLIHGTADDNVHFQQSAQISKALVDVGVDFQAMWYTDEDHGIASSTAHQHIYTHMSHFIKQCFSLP

Row | Structure (SMILES) | % degradation of peptidomimetics in 24 h when incubated with liver microsomes [1] [%] | half-life at 2 μM [1] [h] | half-life (t1/2) when incubated with human plasma [2] | % degradation of peptidomimetics in 24 h when incubated with human plasma [2] [%] | % degradation of peptidomimetics in 24 h when incubated with simulated gastric fluid [3] [%] | half-life at 2 μM [3] [h] | % degradation of peptidomimetics in 24 h when incubated with simulated intestinal fluid [4] [%] | half-life at 2 μM [4] [h] | % degradation of peptidomimetics in 24 h when incubated with DPP-IV enzyme (DPP IV) [%] | Human Glucagon receptor antagonistic activity shown as inhibition of cAMP production of Glucagon peptide (human glucagon receptor; 1 nM test compound) [pmol/ml/μg prt] | Human Glucagon receptor antagonistic activity shown as inhibition of cAMP production of Glucagon peptide (human glucagon receptor; 10 nM test compound) [pmol/ml/μg prt] | Human Glucagon receptor antagonistic activity shown as inhibition of cAMP production of Glucagon peptide (human glucagon receptor; 100 nM test compound) [pmol/ml/μg prt] | Human Glucagon receptor antagonistic activity shown as inhibition of cAMP production of Glucagon peptide (human glucagon receptor; 1 μM test compound) [pmol/ml/μg prt] | Human Glucagon receptor antagonistic activity shown as inhibition of cAMP production of Glucagon peptide (human glucagon receptor; 10 μM test compound) [pmol/ml/μg prt] | half-life (t1/2) when incubated with liver microsomes [1] | half-life at 2 μM [2] [h] | half-life at 2 μM (DPP IV) [h] | half-life (t1/2) when incubated with simulated intestinal fluid [4]
1 | CCc1cc(OC)ccc1-c1ccc(CC(NC(=O)[C@H](CC(=O)O)NC(=O)[C@H](CO)NC(=O)[C@@H](NC(=O)C(C)(Cc2ccccc2F)NC(=O)[C@@H](NC(=O)CNC(=O)[C@H](CC(C(F)(F)F)C(F)(F)F)NC(=O)C(C)(C)NC(=O)[C@H](Cc2c[nH]cn2)NC(C)=O)[C@@H](C)O)[C@@H](C)O)C(=O)NC(CCCc2ccccc2F)C(N)=O)cc1 (some centres unmarked) [compound 212] (Ac-H[Aib][Leu(5,5,5,5',5',5'-F6)]GT[ξαMePhe(2-F)]TSD[ξBip(2'-Et-4'-OMe)][ξbishPhe(2-F)]-NH2) | 100 | 0.5 | (9) h | 80 | 100 | 0.5 | 100 | 0.5 | 77 | 10 ± 0.12 | 8 ± 0.02 | 6 ± 0.04 | 4 ± 0.05 | 1 ± 0.02 |  |  |  | 
2 | CCc1cc(OC)ccc1-c1ccc(CC(NC(=O)[C@H](CC(=O)O)NC(=O)[C@H](CO)NC(=O)[C@@H](NC(=O)C(C)(Cc2ccccc2F)NC(=O)[C@@H](NC(=O)CNC(=O)C(CCC#N)NC(=O)C(C)(C)NC(=O)[C@H](Cc2c[nH]cn2)NC(=O)OC)[C@@H](C)O)[C@@H](C)O)C(=O)NC(CCCc2ccccc2F)C(N)=O)cc1 (single isomer, unassigned) [compound 208] | 100 | 0.5 | (9) h | 78 | 100 | 0.5 | 100 | 0.5 | 76 | 5 ± 0.04 | 3 ± 0.15 | 1 ± 0.15 | 0 | 0 |  |  |  | 
3 | CCc1cc(OC)ccc1-c1ccc(CC(NC(=O)[C@H](CC(=O)O)NC(=O)[C@H](CO)NC(=O)[C@@H](NC(=O)C(C)(Cc2ccccc2F)NC(=O)[C@@H](NC(=O)CNC(=O)[C@H](CC(C(F)(F)F)C(F)(F)F)NC(=O)C(C)(C)NC(=O)[C@@H](N)Cc2c[nH]cn2)[C@@H](C)O)[C@@H](C)O)C(=O)NC(CCCc2cccc(Cl)c2)C(N)=O)cc1 (some centres unmarked) [compound 236] (H-H[Aib][Leu(5,5,5,5',5',5'-F6)]GT[ξαMePhe(2-F)]TSD[ξBip(2'-Et-4'-OMe)][ξNva(5-(3-Cl-Ph))]-NH2) | 35 |  |  | 00 | 00 | > 24 | 00 | > 24 | 00 |  |  |  |  |  | (5) h | > 24 | > 24 | 
4 | CCc1cc(OC)ccc1-c1ccc(CC(CNC(CCCc2ccccc2)C(N)=O)NC[C@H](CC(=O)O)NC(=O)[C@H](CO)NC(=O)[C@@H](NC(=O)C(C)(Cc2ccccc2F)NC(=O)[C@@H](NC(=O)CNC(=O)[C@H](CCC(N)=O)NC(=O)C(C)(C)NC(=O)[C@@H](N)Cc2c[nH]cn2)[C@H](C)O)[C@H](C)O)cc1 (single isomer, unassigned) [compound 201] | 84 | 2 |  | 00 | 43 | 4 | 00 | > 24 | 00 |  |  |  |  |  |  | > 24 | > 24 | 
5 | CCc1cc(OC)ccc1-c1ccc(CC(CNC(CCCc2ccccc2F)C(N)=O)NC(=O)[C@H](CC(=O)O)NC(=O)[C@H](CO)NC(=O)[C@@H](NC(=O)C(C)(Cc2ccccc2F)NC(=O)[C@@H](NC(=O)CNC(=O)[C@H](CC(C(F)(F)F)C(F)(F)F)NC(=O)C(C)(C)NC(=O)[C@@H](N)Cc2c[nH]cn2)[C@H](C)O)[C@H](C)O)cc1 (some centres unmarked) [compound 214] (H-H[Aib][Leu(5,5,5,5',5',5'-F6)]G[aThr][ξαMePhe(2-F)][aThr]SD-X4) | 100 | 0.5 | (9) h | 78 | 100 | 0.5 | 100 | 0.5 | 76 |  |  |  |  |  |  |  |  | 
6 | CCc1cc(OC)ccc1-c1ccc(CC(C(=O)N(C)C(CCCc2ccccc2F)C(N)=O)N(C)C(=O)[C@H](CC(=O)O)N(C)C(=O)[C@H](CO)NC(=O)[C@@H](NC(=O)C(C)(Cc2ccccc2F)NC(=O)[C@@H](NC(=O)CNC(=O)[C@H](CC(C(F)(F)F)C(F)(F)F)NC(=O)C(C)(C)NC(=O)[C@@H](N)Cc2c[nH]cn2)[C@H](C)O)[C@H](C)O)cc1 (some centres unmarked) [compound 221] (H-H[Aib][Leu(5,5,5,5',5',5'-F6)]G[aThr][ξαMePhe(2-F)][aThr]S[NMeD][ξNMeBip(2'-Et,4'-OMe)][ξNMeNva(5-(2-F-Ph))]-NH2) | 32 |  |  | 00 | 00 | > 24 | 00 | > 24 | 00 |  |  |  |  |  | (5) h | > 24 | > 24 | 
7 | CCc1cc(OC)ccc1-c1ccc(CC(NC(=O)[C@H](CC(=O)O)NC(=O)[C@H](CO)NC(=O)[C@@H](NC(=O)[C@H](Cc2ccccc2)NC(=O)[C@@H](NC(=O)CNC(=O)[C@H](CCC(N)=O)NC(=O)[C@H](CO)NC(=O)[C@@H](N)Cc2c[nH]cn2)[C@@H](C)O)[C@@H](C)O)C(=O)NC(CCCc2cccc(Cl)c2)C(N)=O)cc1 (some centres unmarked) [compound 7] (H-HSQGTFTSD[ξBip(2'-Et-4'-OMe)][ξNva(5-(3-Cl-Ph))]-NH2) | 77 | 2 |  | 69 | 11 | 7 | 43 |  | 71 |  |  |  |  |  |  | 8 | 8 | (6) h
